Data from patent US20250082611A1, “DOSING REGIMEN FOR AN NLRP3 INHIBITOR IN THE TREATMENT OF OSTEOARTHRITIS” (Novartis AG, priority 2021, published 2025).

Tests used:
[1] = tested on: ex-vivo stimulated IL-1β release in whole blood; assay: First-in-human study: ex-vivo LPS stimulation of whole blood, IL-1β release (PD); assay type: cell-based
Experimental: To determine the PD response to NLRP3 inhibition, whole blood samples were collected for exploratory PD analysis (Part A and Groups 1-3 of Part C). An ex-vivo stimulation by activating the NLRP3 inflammasome with lipopolysaccharide (LPS) was evaluated compared to control conditions, followed by analysis of blood cell release of the inflammatory marker IL-1β.
Combined individual and mean plots of the individual IL-1β concentrations versus time are presented by treatment. Modeling of Compound IA effects on a corrected, stimulated ex vivo Lipopolysaccharide (LPS) challenge in whole blood included evaluation of the relationship between LPS challenge results by conditionally weighted residual modeling.

[2] = First-in-human study: safety and tolerability in healthy subjects; assay type: in vivo
Source text: The study design comprised of 4 parts: single ascending dose (SAD; Part A), relative bioavailability of tablet formulations (Part B), multiple ascending dose (MAD; Part C), and relative bioavailability and food effect (Part D) (FIG. 2; RF=Reference Formulation (crystalline suspension); T2=Test Formulation 2 (crystalline tablet); T3=Test Formulation 3 (spray-dried dispersion suspension); T4=Test Formulation 4 (encapsulated crystalline tablet)). In each group of Parts A and C, 8 subjects were randomized in a 3:1 ratio to receive Compound IA (6 subjects) or matching placebo (2 subjects).
For Part A, eight cohorts of eight eligible subjects were enrolled. Each subject received a single oral dose of Compound IA (3, 10, 30, 100, 300 mg of crystalline suspension and 100, 300, 600 mg of spray-dried dispersion (SDD) under fasted conditions. As this was a FIH study, two sentinel subjects were dosed first, at least 24 hours before the rest of the cohort was dosed, to assure maximum safety. Part B was skipped because the data from Part A provided for an adequate comparison of crystalline and SDD formulations.
For part C, eligible subjects were enrolled in six different cohorts. […] Subjects were dosed in Part C following review available safety, tolerability and PK data from preceding groups in Part A.
Safety assessments in all parts of the study included adverse event (AE) reporting using the Medical Dictionary for Regulatory Activities (version 22.1), clinical laboratory tests (biochemistry, hematology, and urinalysis), vital signs, electrocardiograms (ECGs), physical examination and skin biopsy (as applicable).

CYP3A = assay: In vitro metabolism studies, CYP3A induction and substrate; assay type: in vitro ADME
Source text: Therefore, investigators, at their discretion, may administer concomitant medications known to be metabolized by CYP3A4/5. Patients receiving such medications may require dose titration or increase of the concomitant drug. […] Investigators may, at their discretion, co-administer known inhibitors of CYP3A, but their duration should be kept as short as possible, and patients must be closely monitored.

[3] = fractional Emax model with Hill coefficient

## CC(C)(O)c1ncc([S@](N)(=O)=NC(=O)Nc2c3c(cc4c2CCC4)CCC3)s1 [Compound IA, (R)-N′-((1,2,3,5,6,7-hexahydro-s-indacen-4-yl)carbamoyl)-2-(2-hydroxypropan-2-yl) thiazole-5-sulfonimidamide]
[1]; Homo sapiens, LPS challenge, median, 90% CI 2.84, 3.54, read-out: IC90, inhibiting 90% of ex-vivo stimulated IL-1β release
  IC90: 3180 nM
[1]; Homo sapiens, relative to 100% inhibition, 90% CI 0.118, 0.179
  IC50: 146 nM
[1]; Homo sapiens, relative to estimated maximum effect, 90% CI 0.114, 0.171
  EC50: 141 nM
[1]; Homo sapiens, relative to estimated maximum effect, 90% CI 2.24, 2.94
  EC90: 2570 nM
[1]; [3]
  Emax of IL-1β, arithmetic mean (±SD): −0.985 (±0.00277)
  observed stimulation effect of IL-1β, arithmetic mean (±SD): 1820 (±102) ng/L
[1]; most dose levels
  time after dosing from which inhibition of IL-1β was observed: 1 h
[1]; single and multiple oral doses
  concentrations of IL-1β with increasing doses: dose-dependent decreases
[2]; 21/94 who received Compound IA
  subjects with TEAEs considered related to study drug: 22%
[2]; Compound IA arm, 66/94 subjects
  subjects reporting treatment emergent adverse events (TEAEs): 70%
[2]; dosed once daily with 30, 100, and 200 mg
  skin rash: skin rashes have been observed in some participants
[2]; human, in vivo
  dose relation of maculopapular and/or pruritic skin rashes: most frequently reported at the higher multiple dose levels
  intensity of skin rash/pruritus TEAEs: mild to moderate
  subjects with mild, non-clinically significant decrease in neutrophil and leukocyte counts: 27 subjects
  vital signs, 12-lead ECG, 24-hour Holter monitoring, physical examination: No other clinically relevant findings
[2]; multiple dose 30 mg QD
  subjects with skin rash and/or pruritus: 2 n
[2]; multiple dose 50 mg BID
  subjects with skin rash and/or pruritus: 3 n
[2]; multiple dose 100 mg QD
  subjects with skin rash and/or pruritus: 3 n
[2]; multiple dose 200 mg QD
  subjects with skin rash and/or pruritus: 2 n
[2]; non-clinically significant, occasionally noted
  neutrophil and leukocyte counts: Mild decreases
[2]; of 122 enrolled, all received Compound IA
  subjects with TEAEs of maculopapular skin rash and/or pruritus (adverse events of special interest): 12 subjects
[2]; single and multiple oral doses, healthy subjects
  tolerability: generally well tolerated
[2]; single dose 100 mg
  subjects with skin rash and/or pruritus: 1 n
[2]; single dose 600 mg
  subjects with skin rash and/or pruritus: 1 n
[2]; whole study
  deaths or serious adverse events: No deaths or serious adverse events (SAEs) were reported
CYP3A
  CYP3A substrate status: substrate of CYP3A
  induction of metabolism of CYP3A substrates: might have the potential to induce
